Results taken from patent US7704971B2, “Uracil reductase inactivators” (SmithKlineBeecham Corporation, priority 1990, dated 2010).

How the values were obtained:
uracil reductase [1] = target: T1, uracil reductase (Rattus norvegicus, UniProt O89000); assay: Inactivation of uracil reductase in vivo (plasma uracil and thymine), rats
T1 construct: from tissue; host or cells: whole animal (rat), endogenous enzyme
T1 sequence (O89000 1-1025): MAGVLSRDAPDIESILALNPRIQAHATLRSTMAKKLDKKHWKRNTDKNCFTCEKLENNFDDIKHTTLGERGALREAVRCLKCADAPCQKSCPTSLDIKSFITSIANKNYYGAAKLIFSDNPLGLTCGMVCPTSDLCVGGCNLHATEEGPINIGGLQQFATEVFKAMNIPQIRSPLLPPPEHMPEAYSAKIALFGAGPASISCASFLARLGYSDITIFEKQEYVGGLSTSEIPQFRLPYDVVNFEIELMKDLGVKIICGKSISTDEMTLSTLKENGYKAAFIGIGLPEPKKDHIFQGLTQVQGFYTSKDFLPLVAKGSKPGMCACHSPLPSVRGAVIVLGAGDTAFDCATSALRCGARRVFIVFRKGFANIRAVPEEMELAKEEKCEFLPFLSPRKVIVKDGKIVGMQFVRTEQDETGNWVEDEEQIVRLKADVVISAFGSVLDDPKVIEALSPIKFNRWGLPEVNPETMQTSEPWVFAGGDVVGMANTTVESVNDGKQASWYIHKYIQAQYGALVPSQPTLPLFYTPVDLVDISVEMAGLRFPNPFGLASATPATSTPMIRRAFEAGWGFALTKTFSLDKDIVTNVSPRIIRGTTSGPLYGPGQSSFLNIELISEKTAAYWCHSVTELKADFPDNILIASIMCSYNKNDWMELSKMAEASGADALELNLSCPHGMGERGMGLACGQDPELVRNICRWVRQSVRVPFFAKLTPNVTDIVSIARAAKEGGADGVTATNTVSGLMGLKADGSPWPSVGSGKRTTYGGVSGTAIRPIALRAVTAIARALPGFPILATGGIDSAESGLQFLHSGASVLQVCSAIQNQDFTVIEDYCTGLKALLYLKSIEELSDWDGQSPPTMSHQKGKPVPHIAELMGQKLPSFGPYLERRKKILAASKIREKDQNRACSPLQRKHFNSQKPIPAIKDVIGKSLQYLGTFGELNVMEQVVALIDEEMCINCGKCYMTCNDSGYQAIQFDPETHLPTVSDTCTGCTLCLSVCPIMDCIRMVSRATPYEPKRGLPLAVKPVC
Experimental: (§1) The maximum effect occurred at about 0.1 mg/kg p.o. in rats, at 0.5 to 1 mg/kg s.c. in mice, and at approximately 1 mg/kg intravenously (i.v.) in dogs and probably represents total inactivation of uracil reductase. These doses elevated mouse, dog, and rat plasma uracil from about 3 uM to about 50-60 uM. […] The ED50 equals 0.01 mg/kg.

[2] = target: T2, Uracil reductase (dihydropyrimidine dehydrogenase, EC 1.3.1.2) (Bos taurus, UniProt Q28007); assay: Determination of uracil reductase inactivation; assay type: biochemical, bovine
T2 construct: purified from bovine liver; from tissue; host or cells: bovine liver
T2 sequence (Q28007 1-1025): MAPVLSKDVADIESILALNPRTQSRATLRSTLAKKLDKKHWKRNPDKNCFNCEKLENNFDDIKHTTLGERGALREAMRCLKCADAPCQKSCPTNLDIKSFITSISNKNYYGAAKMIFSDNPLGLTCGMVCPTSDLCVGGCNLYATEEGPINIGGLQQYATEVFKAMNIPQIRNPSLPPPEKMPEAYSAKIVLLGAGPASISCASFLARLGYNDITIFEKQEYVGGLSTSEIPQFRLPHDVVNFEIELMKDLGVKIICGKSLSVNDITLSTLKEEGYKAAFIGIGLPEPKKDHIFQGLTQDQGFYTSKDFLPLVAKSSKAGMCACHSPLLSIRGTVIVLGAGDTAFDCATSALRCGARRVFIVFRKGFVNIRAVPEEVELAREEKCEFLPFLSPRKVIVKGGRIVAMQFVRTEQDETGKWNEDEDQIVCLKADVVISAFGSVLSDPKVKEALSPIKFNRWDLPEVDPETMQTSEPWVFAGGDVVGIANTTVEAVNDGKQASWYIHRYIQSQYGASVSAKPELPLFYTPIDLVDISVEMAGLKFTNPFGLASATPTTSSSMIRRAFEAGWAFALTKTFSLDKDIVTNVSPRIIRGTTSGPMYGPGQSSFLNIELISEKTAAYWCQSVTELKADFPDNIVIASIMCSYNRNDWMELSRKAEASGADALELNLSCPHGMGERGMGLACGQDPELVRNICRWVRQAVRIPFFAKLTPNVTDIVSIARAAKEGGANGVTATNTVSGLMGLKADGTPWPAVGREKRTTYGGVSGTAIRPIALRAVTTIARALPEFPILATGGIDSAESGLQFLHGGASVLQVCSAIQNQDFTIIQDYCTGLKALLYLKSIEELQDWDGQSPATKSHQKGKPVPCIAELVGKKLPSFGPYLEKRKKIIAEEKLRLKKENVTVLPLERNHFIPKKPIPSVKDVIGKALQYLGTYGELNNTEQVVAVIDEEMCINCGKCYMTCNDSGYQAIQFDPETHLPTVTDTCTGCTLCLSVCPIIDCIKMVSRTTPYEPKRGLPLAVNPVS
Experimental: Uracil reductase (1 micromolar) (dihydropyrimidine dehydrogenase, EC 1.3.1.2) purified from bovine liver was incubated with 100 micromolar inactivator and 5 mM dithiothreitol (enzyme reductant) at 37° for 30 minutes in 0.05 M Tris-HCl at pH 8.0. The enzyme and inactivator were diluted 100-fold into the assay buffer, which contained 200 micromolar NADPH, 200 micromolar thymine and 1 mM dithiothreitol in Tris-HCl at pH 8.0. The velocity of the enzyme was determined spectrophotometrically. These velocities have been corrected for NADPH oxidase activity, which was less than […] of the rate of thymine-dependent oxidation of NADPH. The % inactivation of the enzyme was equal to 100% minus the percent of enzymatic activity remaining. Enzyme incubated without inhibitor was stable under these conditions. Parenthetical values are the relative first-order rate constants for inactivation of enzyme determined from similar experiments where the fractional activity was measured as a function of the time of incubation of 50 micromol inactivator with enzyme.

uracil reductase [3] = assay: Return of plasma uracil to normal after EU (species not specified); assay type: in vivo; conditions: after EU dose of maximum effect
Experimental: as §1

uracil reductase [4] = assay: Inactivation of uracil reductase in vivo (plasma uracil and thymine), monkeys; conditions: monkeys dosed with small amounts
Experimental: as §1

uracil reductase [5] = assay: Inactivation of uracil reductase in vivo (plasma uracil and thymine), dogs
Experimental: as §1

## C#Cc1c[nH]c(=O)[nH]c1=O [5-ethynyluracil]
Uracil reductase [1]; rat, at dose of maximum effect, elevated from about 3 uM
  plasma uracil: 50 to 60 µM
Uracil reductase [1]; rat, oral doses, 4 hours after dosing, read-out: ED50 (increased plasma levels of uracil and thymine)
  ED50: 0.01 mg/kg
Uracil reductase [1]; rats, p.o.
  dose at which the maximum effect on plasma uracil and thymine occurred: about 0.1 mg/kg
[2]; 50 micromol inactivator, fractional activity vs time of incubation
  relative first-order rate constants for inactivation of enzyme (parenthetical values): (100)
[2]; 0.5 h, 100 micromolar inactivator, 1 micromolar enzyme, 5 mM dithiothreitol, 37° for 30 minutes, pH 8.0, read-out: % Inactivation
  inhibition at 100 µM: 100%
Uracil reductase [3]
  half-life of plasma uracil decrease to normal: 10 h
  time over which plasma uracil decreased to normal: 24 h
Uracil reductase [4]
  plasma uracil and thymine levels: greatly elevated
Uracil reductase [5]; dog, at dose of maximum effect, elevated from about 3 uM
  plasma uracil: 50 to 60 µM
Uracil reductase [5]; dogs, intravenously (i.v.)
  dose at which the maximum effect on plasma uracil and thymine occurred: approximately 1 mg/kg
